# Assays:
# HPK1 = biological target: T1, HPK1 (Homo sapiens, UniProt Q92918); test: HPK1 enzyme inhibition assay (ADP-Glo); type: biochemical; conditions: MBP substrate, ATP
# T1 construct: purchased Signal Chem M23-11G-10
# T1 sequence (Q92918 1-346 limits assumed): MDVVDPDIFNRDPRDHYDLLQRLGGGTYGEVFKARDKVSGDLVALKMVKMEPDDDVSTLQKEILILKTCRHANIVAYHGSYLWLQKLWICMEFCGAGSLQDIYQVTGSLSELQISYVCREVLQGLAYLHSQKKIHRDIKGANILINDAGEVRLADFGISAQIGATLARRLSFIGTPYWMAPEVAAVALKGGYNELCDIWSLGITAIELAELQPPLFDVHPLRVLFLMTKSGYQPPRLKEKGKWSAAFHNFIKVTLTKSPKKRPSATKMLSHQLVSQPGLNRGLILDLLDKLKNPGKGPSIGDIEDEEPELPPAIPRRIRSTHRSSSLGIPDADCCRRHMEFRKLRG
# Experimental: The compound was dissolved in 100% DMSO at the concentration of 10 mM. The HPK1 protein was purchased from Signal Chem (M23-11G-10). 2.5 μL per well of 2×HPK1 protein was added to assay plate containing the test compound, centrifuged at 1500 rpm for 1 minute, and then incubated at 25° C. for 60 minutes. MBP protein was purchased from Signal Chem (M42-51N) and ATP was purchased from Promega (V9102). The two were added 2.5 μL per well mixture of 2×MBP (0.2 ug/ul) and ATP (20 μM), centrifuged at 1500 rpm for 1 minute, then incubated at 25° C. for 60 minutes. Then added 5 μL of ADP-Glo from Promega (V9102) to the assay plate and depleted the unconsumed ATP for 60 minutes. Then centrifuged at 1500 rpm for 1 minute and incubated at 25° C. for 60 minutes. Finally, 10 μL of the kinase assay reagent from Promega (V9102) was added to the assay plate to convert ADP to ATP, centrifuged at 1500 rpm for 1 minute, incubate at 25° C. for 40 minutes. After 40 minutes incubation, the […] was determined. Based on the results, the IC50 value of the compound was calculated.
# FLT3-ITD = biological target: T2, FLT3-ITD (Homo sapiens, UniProt P36888); test: FLT3-ITD enzyme inhibition assay (HTRF KinEASE-TK); type: biochemical; conditions: FLT3-ITD protein, ATP 15 μM
# T2 construct: The FLT3-ITD protein was purchased from Invitrogen (PV6190)
# T2 sequence (P36888 1-993): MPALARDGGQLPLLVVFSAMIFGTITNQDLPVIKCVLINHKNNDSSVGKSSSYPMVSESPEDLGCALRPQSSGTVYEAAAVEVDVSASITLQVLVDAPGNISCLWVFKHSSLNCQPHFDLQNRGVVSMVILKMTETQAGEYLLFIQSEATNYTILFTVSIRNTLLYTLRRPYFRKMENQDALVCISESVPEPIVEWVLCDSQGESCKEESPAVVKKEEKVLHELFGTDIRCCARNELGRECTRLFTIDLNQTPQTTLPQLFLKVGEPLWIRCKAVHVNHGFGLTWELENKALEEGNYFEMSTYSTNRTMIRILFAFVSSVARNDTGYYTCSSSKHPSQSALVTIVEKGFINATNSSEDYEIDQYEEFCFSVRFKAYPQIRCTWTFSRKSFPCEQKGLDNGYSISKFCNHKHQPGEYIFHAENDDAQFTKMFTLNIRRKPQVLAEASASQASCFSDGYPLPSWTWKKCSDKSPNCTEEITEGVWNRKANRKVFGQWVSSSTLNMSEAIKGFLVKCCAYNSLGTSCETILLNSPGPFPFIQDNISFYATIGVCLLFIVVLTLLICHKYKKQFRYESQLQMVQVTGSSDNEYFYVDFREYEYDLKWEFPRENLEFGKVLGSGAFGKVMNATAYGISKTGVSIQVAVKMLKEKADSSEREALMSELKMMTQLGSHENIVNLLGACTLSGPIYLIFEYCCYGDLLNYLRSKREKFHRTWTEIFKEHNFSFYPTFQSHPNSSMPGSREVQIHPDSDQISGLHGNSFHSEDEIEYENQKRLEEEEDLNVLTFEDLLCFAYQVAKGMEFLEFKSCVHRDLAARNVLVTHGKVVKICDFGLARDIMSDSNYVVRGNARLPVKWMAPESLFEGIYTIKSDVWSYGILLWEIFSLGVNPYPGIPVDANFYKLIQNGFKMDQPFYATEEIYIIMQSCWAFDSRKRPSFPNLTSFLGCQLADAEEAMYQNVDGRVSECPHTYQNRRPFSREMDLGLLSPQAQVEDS
# Experimental: The compound was dissolved in 100% DMSO at the concentration of 10 mM. The FLT3-ITD protein was purchased from Invitrogen (PV6190). 5 μL per well of 2×FLT3-ITD protein was added to assay plate containing the test compound, centrifuged at 1000 rpm for 1 minute, and then incubated at 25° C. for 15 minutes. HTRF KinEASE-TK kit was purchased from Cisbio (62TK0PEC) and ATP was purchased from Thermo Fisher Scientific (R0441). TK-Substrate-biotin and ATP were added 5 μL per well mixture of 2×TK-Substrate-biotin (final conc. is […]) and ATP (final conc. is 15 μM), centrifuged at 1000 rpm for 1 minute, then incubated at 25° C. for 60 minutes. Then added 10 μL of detection buffer (0.25×TK-antibody Eu3+-cryptate, 0.125 μM streptavidine-XL 665) to the assay plate and centrifuged at 1000 rpm for 1 minute then incubated at 25° C. for 60 minutes and 4° C. incubated for overnight, the product was determined. Based on the results, the IC50 value of the compound was calculated.
# [1] = tested on: HPK1 p-SLP-76 in Jurkat cells; test: HPK1 p-SLP-76 inhibition assay in Jurkat cells (HTRF); type: cell-based; conditions: Homo sapiens, 4 h compound, anti-CD3 stimulation 20 min
# Experimental: Before compound treatment, Jurkat cells were starved in PRMI-1640 medium supplemented with 0.5% FBS overnight. The cell density was adjusted to 1*10^7 cells/mL in assay medium (RPMI-1640 no phenol red with 0.5% FBS) and 16 uL cell suspension was transferred per well to a 384-well plate (Corning #3765). […] of test compound was prepared in assay medium and 4 uL was added per well to the 384-well plate. The plate was then incubated at 37° C., 5% CO2 for 4 h. Jurkat cells in 384-well plate were stimulated with anti-CD3 (BD Biosciences #555329, final conc. is 10 ug/mL) for 20 min at 37° C., 5% CO2 by adding 4 uL 6× antibody solution per well. Phospho-SLP76 HTRF kit was purchased from Cisbio (63ADK076PEH). 8 uL 4× Lysis Buffer was added to 384-well plate after anti-CD3 stimulation. The plate was centrifuged at 1,000 rpm for 1 min, shaken at 250 rpm for 60 min and centrifuged again at 1,000 rpm for 5 min. Afterwards the cell lysates were transferred to the assay plate (Greiner #784075) with 16 uL per well. 4 uL detection antibody mix per well prepared in Detection Buffer was added to the assay plate, followed by centrifugation at 1,000 rpm for 1 min and incubation at 25° C. overnight. The fluorescence emission at two different wavelengths (665 nm and 620 nm) was read by an HTRF compatible microplate reader and the IC50 value of the compound was calculated.
SMILES,IC50 (HPK1) [nM],IC50 (FLT3-ITD) [nM],IC50 [1] [nM]
"CCc1c[nH]c2ncc(-c3nc(N4CCNCC4=O)sc3C)c(Cl)c12 [Example 20, 1-(4-(4-chloro-3-ethyl-1H-pyrrolo[2,3-b]pyridin-5-yl)-5-methylthiazol-2-yl)piperazin-2-one]",100 to 1000,10 to 100,> 10000
"CCc1c[nH]c2ncc(-c3cccc(N4CCN(C(=O)COC)CC4=O)c3)c(Cl)c12 [Example 25, 1-(3-(4-chloro-3-ethyl-1H-pyrrolo[2,3-b]pyridin-5-yl)phenyl)-4-(2-methoxyacetyl)piperazin-2-one]",≤ 10,≤ 10,≤ 300
"CCc1c[nH]c2ncc(-c3cccc(N4CCN(C(=O)[C@@H](N)Cc5ccccc5)CC4=O)c3)c(Cl)c12 [Example 43, 4-(L-phenylalanyl)-1-(3-(4-chloro-3-ethyl-1H-pyrrolo[2,3-b]pyridin-5-yl)phenyl)piperazin-2-one]",≤ 10,10 to 100,3000 to 10000
"CCc1c[nH]c2ncc(-c3cccc(N4CCN(C(=O)COc5ccc(C[C@@H](N)C(=O)O)cc5)CC4=O)c3)c(Cl)c12 [Example 45, (R)-2-amino-3-(4-(2-(4-(3-(4-chloro-3-ethyl-1H-pyrrolo[2,3-b]pyridin-5-yl)phenyl)-3-oxopiperazin-1-yl)-2-oxoethoxy)phenyl)propanoic acid]",≤ 10,≤ 10,> 10000
"O=C1CN(S(=O)(=O)CCCN2CCOCC2)CCN1c1cccc(-c2cnc3[nH]cc(CC(F)F)c3c2Cl)c1 [Example 59, 1-(3-(4-chloro-3-(2,2-difluoroethyl)-1H-pyrrolo[2,3-b]pyridin-5-yl)phenyl)-4-((3-morpholinopropyl)sulfonyl)piperazin-2-one]",≤ 10,,300 to 3000
"CN(C)CCCS(=O)(=O)N1CCN(c2cccc(-c3cnc4[nH]cc(CC(F)F)c4c3Cl)c2)C(=O)C1 [Example 60, 1-(3-(4-chloro-3-(2,2-difluoroethyl)-1H-pyrrolo[2,3-b]pyridin-5-yl)phenyl)-4-((3-(dimethylamino)propyl)sulfonyl)piperazin-2-one]",≤ 10,≤ 10,300 to 3000
"CS(=O)(=O)N1CCN(c2cccc(-c3cnc4[nH]cc(CC(F)F)c4c3Cl)n2)C(=O)C1 [Example 61, 1-(6-(4-chloro-3-(2,2-difluoroethyl)-1H-pyrrolo[2,3-b]pyridin-5-yl)pyridin-2-yl)-4-(methylsulfonyl)piperazin-2-one]",≤ 10,,300 to 3000

# Second part, the compound after the results:
IC50 (HPK1) [nM],IC50 (FLT3-ITD) [nM],IC50 [1] [nM],SMILES
10 to 100,10 to 100,3000 to 10000,"O=C1CNCCN1c1cccc(-c2cnc3[nH]cc(C#Cc4ccccn4)c3c2Cl)c1 [Example 7, 1-(3-(4-chloro-3-(pyridin-2-ylethynyl)-1H-pyrrolo[2,3-b]pyridin-5-yl)phenyl) piperazin-2-one]"
≤ 10,≤ 10,300 to 3000,"CCc1c[nH]c2ncc(-c3cccc(N4CCN(C(=O)CNC(=O)[C@@H](N)C(C)C)CC4=O)c3)c(Cl)c12 [Example 44, (S)-2-amino-N-(2-(4-(3-(4-chloro-3-ethyl-1H-pyrrolo[2,3-b]pyridin-5-yl)phenyl)-3-oxopiperazin-1-yl)-2-oxoethyl)-3-methylbutanamide]"
≤ 10,≤ 10,> 10000,"CCc1c[nH]c2ncc(-c3cccc(N4CCN(C(=O)CCCO[C@@H]5O[C@H](CO)[C@@H](O)[C@H](O)[C@H]5O)CC4=O)c3)c(Cl)c12 [Example 48, 1-(3-(4-chloro-3-ethyl-1H-pyrrolo[2,3-b]pyridin-5-yl)phenyl)-4-(4-(((2R,3R,4S,5S,6R)-3,4,5-trihydroxy-6-(hydroxymethyl)tetrahydro-2H-pyran-2-yl)oxy)butanoyl)piperazin-2-one]"
≤ 10,≤ 10,300 to 3000,"CCc1c[nH]c2ncc(-c3cccc(N4CCN(C(=O)COc5cccc(C6O[C@H](CO)[C@@H](O)[C@H](O)[C@H]6O)c5)CC4=O)c3)c(Cl)c12 (stereo partly drawn) [Example 50, 1-(3-(4-chloro-3-ethyl-1H-pyrrolo[2,3-b]pyridin-5-yl)phenyl)-4-(2-(3-((3R,4R,5S,6R)-3,4,5-trihydroxy-6-(hydroxymethyl)tetrahydro-2H-pyran-2-yl)phenoxy)acetyl)piperazin-2-one]"
≤ 10,≤ 10,300 to 3000,"CS(=O)(=O)N1CCN(c2cccc(-c3cnc4[nH]cc(C5CC5)c4c3Cl)c2)C(=O)C1 [Example 53, 1-(3-(4-chloro-3-cyclopropyl-1H-pyrrolo[2,3-b]pyridin-5-yl)phenyl)-4-(methylsulfonyl)piperazin-2-one]"
≤ 10,,300 to 3000,"COCCS(=O)(=O)N1CCN(c2cccc(-c3cnc4[nH]cc(CC(F)F)c4c3Cl)c2)C(=O)C1 [Example 62, 1-(3-(4-chloro-3-(2,2-difluoroethyl)-1H-pyrrolo[2,3-b]pyridin-5-yl)phenyl)-4-((2-methoxyethyl)sulfonyl)piperazin-2-one]"
